Measured values published in patent US20040132817A1, “Use of an histone deacetylase inhibitor for the treatment of diseases associated with an hpv infection” (priority 2001, published 2004).

What was measured:
Format in all cases: cell-based, human
p21^CIP1 mRNA = assay: Northern blot of p21^CIP1 in "1637" keratinocytes; conditions: "1637" cells, six hours following NaB addition
Protocol: Keratinocytes immortalized with HPV16 E6/E7 either under control of (A) the homologues viral upstream regulatory region (,1637″) or (B) of the β-actin promoter (,1321″) were incubated with NaB for various periods of time. 5 μg of RNA was separated in 1% agarose gels. The filters were hybridized with probes specific for HPV16, p21^CIP1 (=p21), β-actin and GAPDH. The positions of the 28S and 18S ribosomal RNA are indicated. (Contr.): untreated cells.
Total cellular RNA was extracted according to the guanidinium-thiocyanate procedure (Chomczynski and Sacchi, Anal. Biochem. 162 (1987), 156-159). Approximately 5 μg RNA were separated on 1% agarose gels in the presence of ethidium bromide under non-denaturing conditions and transferred to GeneScreen Plus membranes (DuPont, Bad Homburg, Deutschland). The filters were hybridized under stringent conditions with specific probes, which were labeled with ^32p-dCTP by random priming (Feinberg and Vogelstein, Anal. Biochem. 137 (1984), 266-267).

cdk2 complex = assay: Western blot analysis of cdk2 immunoprecipitates from "1321" and "1637" keratinocytes; conditions: "1321" and "1637" cells, 6 mM sodium butyrate, 16 hours
Protocol: (§1) (A) Upper panel: cdk2 complexes were immunoprecipitated and assayed for their activity using histone H1 as substrate. Lower panels: Western blot analysis of the cdk 2 complexes. Filters were incubated with specific antibodies against p21^CIP1 (=p21) and p27^KIP1 (=p27). Equal precipitation and loading was controlled by incubation with a cdk 2 antibody.
(§2) For cell fractionation, cell monolayers were washed twice with PBS and harvested by trypsinisation. Cell extract preparation and cdk2 activity assays were exactly done as described by Blomberg and Hoffmann, Mol. Cell. Biol. 19 (1999), 6183-6194. In addition, cdk2 was immunoprecipitated and analyzed by immunoblotting. Beads used for cdk2 kinase assay were washed 3 times with lysis buffer (Blomberg and Hoffmann, 1999), incubated with Laemmli sample buffer and boiled for 5 min. Supernatant was analyzed by SDS-PAGE gels. Immunoblotting was carried out with the following antibodies: p21^CIP1 (C24420) and p27^KIP1 (K25020; Transduction Laboratories) or HPV18-E7 (N-19; Santa Cruz, Inc.). Cdk2 specific antibodies or preimmune serum were kindly provided by I. Hoffmann (DKFZ, Heidelberg).

HeLa cells = assay: Flow-cytometric cell cycle analysis of HeLa cells; conditions: 6 mM sodium butyrate, 16 hours
Protocol: “Contr.”: untreated control. The different phases of the cell cycle are indicated (G1, S, G2, respectively). Lower part: quantification of the number of cells during the cell cycle (means of three independent experiments).
Cells were harvested by trypsinisation, washed twice with phosphate-buffered saline (PBS) and fixed overnight with 70% ethanol. The cells were resuspended in PBS containing 40 μg/ml of DNase-free RNase A and 50 μg/ml propidium iodide and cell cycle distribution was measured in a fluorescence-activated cell sorter (FACSort) from Becton Dickinson, San Jose, USA. DNA content was quantified by using the “Cell Quest” software (Becton Dickinson, San Jose, USA).
In order to elucidate the molecular effects of histone deacetylase inhibition in the context of HPV16/18-induced carcinogenesis, the HPV18-positive cervical carcinoma cell line HeLa as well as primary human foreskin keratinocytes, which were separately immortalized with amphotropic retroviruses carrying the open reading frames of HPV16 E6, E7 or E6/E7 were used in the experiments of the present invention. In order to assess the specific impact of histone deacetylase inhibition on cell proliferation, flow cytometric analysis of cellular DNA content was carried out (FIG. 1). […]

cdk2 = assay: Histone H1 kinase assay of cdk2 complexes from "1321" and "1637" keratinocytes; conditions: "1321" and "1637" cells, 6 mM sodium butyrate, 16 hours
Protocol: as §1, §2

"1637" cells = assay: Flow-cytometric cell cycle analysis of "1637" keratinocytes (HPV-16 E6/E7 under HPV16 URR); conditions: 6 mM sodium butyrate, 16 hours
Excerpt: (B) Flow-cytometric analysis. Quantification of the proportion of cells in the cell cycle phases G1, S and G2/M (standard deviations are the mean of three independent experiments).
HPV18-positive cervical Carcinoma cells (HeLa) were maintained in Dulbecco's modified Eagle's medium (DMEM), supplemented with 10% fetal calf serum (Gibco BRL, Rockville, USA), 1% penicillin and streptomycin (Sigma, Deisenhofen, Deutschland). Primary human keratinocytes, immortalized by E6-, E7- and E6/E7-open reading frames carrying amphotroptic retroviruses were cultivated in “Keratinocyte Medium Kit” (Sigma). Human foreskin keratinocytes transformed with HPV-16 E6/E7 either under the control of a human β-actin promoter (,1321″) or under the control of the authentic upstream regulatory region HPV (,1637″) were a kind gift of Dr. R. Schlegel (Georgetown University, Washington, USA) (Münger et al., J. Virol. 63 (1989), 4414-4423; Villa & Schlegel, Virology 181 (1991), 374-377). […]
Cells were harvested by trypsinisation, washed twice with phosphate-buffered saline (PBS) and fixed overnight in 70% ethanol. […] Cell cycle analysis and quantification of flow cytometric data was performed according to Dean and Jett, J. Cell. […]

With `CCCC(=O)[O-].[Na+]` [sodium butyrate] the p21CIP1 expression (p21^CIP1 mRNA) was “augmented”, the “p21^CIP1 and p27^KIP1 co-precipitated with cdk2” value (cdk2 complex) was “high amounts of co-precipitated” and the “number of cells in S-phase” value (HeLa cells; untreated 24.9%) was 8.5%. For the same molecule, the G1 fraction (HeLa cells; untreated 56.8%) was 75.7%, the “cdk2 kinase activity (histone H1)” value (cdk2) was “inability of cdk2 to phosphorylate histone H1” and the “proportion of cells within S-phase” value ("1637" cells; "1621" as printed, untreated 24.9%) was 4.7%. For the same molecule, the “cells in G1” value ("1637" cells; "1621" keratinocytes as printed, untreated 65.3%) was 81.2%.
